# US20260132420A1, “VIRAL VECTORS FOR NUCLEAR REPROGRAMMING” (Mayor Foundation for Medical Education and Research, priority 2016, published 2026)
# Experiments:
# BJ cells [1] = test: Transduction efficiency by GFP expression (microscopy, flow cytometry); assay type: cell-based, human; conditions: added at transduction with MV vector, 48 hours
# From the text: (§1) To increase transduction efficiency the spinoculation technique was established. To reduce MV-induced toxicity, the MOI of transduction was decreased. BJ cells, a neonatal foreskin human cells were purchased from the American Type Culture Collection (ATCC #CRL 2522), and were transduced with the 4F vector at a MOI of 1 instead of 6 as described elsewhere (Driscoll et al., Stem Cell Research and Therapy 6:48 (2015)). In order to induce TLR3 activation during MV reprogramming, the transduction was performed in presence of polyI:C (a TLR3 activator). Transduced cells were subjected or not to spinoculation at 1000 rpm for 1 hour at room temperature. The culture supernatants were replaced with BJ media every three days. After 9 days, optimized serum-free/feeder-free iPSC medium was added and replaced daily. The cells were monitored until reprogrammed cells form small colonies with iPSC morphology (one to two weeks after vector transduction). Pictures were taken at different stages. iPS-like clones were picked after three to four weeks, and plated at 1 colony/well in Matrigel-coated wells for further expansion. […] The most efficient MOI for each vector was determined.
# Transduction efficacy of the vectors was tested at different MOI using light microscopy and flow cytometry and testing for GFP expression. BJ cells were transduced with 4F* at a MOI of 0.5 or 0.25. […]
# BJ cells [2] = test: Reprogramming of BJ human fibroblasts into iPSC-like clones; assay type: cell-based; conditions: SB431542 5 μM, PD0325901 0.2 μM, Thiazovivin 0.5 μM together, day 7 to 14
# Method: Using a reprogramming protocol described elsewhere (Driscoll et al., Stem Cell Research and Therapy 6:48 (2015)), an iPSC-like clone with MV(OCT4)P-ΔH(KLF4) (GFP)H or MV(T) vector in combination with 2 LV encoding SOX2 and cMYC was obtained. The clone obtained with vector MV(T) was analyzed for pluripotency markers (FIGS. 2B and C), for its ability to spontaneously differentiate into the three germ lineages after EB formation (not shown), and its ability to differentiate into contracting cardiomyocytes through guided cardiac differentiation (FIG. 2D).
# as §1, with “After 9 days, optimized serum-free/feeder-free iPSC medium was added and replaced daily.” left out, “transduction).” for “transduction). Pictures were taken at different stages. iPS-like clones were picked after three to four weeks, and plated at 1 colony/well in Matrigel-coated wells for further expansion.”
# The ability of the MV(OCT4) mir375 to reprogram BJ cells in presence of 3LV expressing SOX2, KLF4, and cMYC was analyzed, and its efficiency was compared to MV(OCT4) and 4LV. […] Using light and fluorescence microscopy, early phases of iPSC-like clone development with MV(OCT4)miR375 were observed (15 days post transduction, FIG. 6B). […] The expression of the N mRNA in the early passages of four iPSC-like clones derived from MV(OCT4)miR375 was analyzed. […] RNA was collected at each passage and RT-PCR for N and P mRNA was analyzed. […]
# The ability of the 4F* to reprogram BJ cells was analyzed. […]
Molecule,effect on expression of measles proteins (GFP) (BJ cells [1]),effect of added small molecules on reprogramming efficiency of MV four factor vectors (BJ cells [2])
polyI:C,does not affect the expression of measles proteins,
O=C(NOC[C@H](O)CO)c1ccc(F)c(F)c1Nc1ccc(I)cc1F [PD0325901],,improved efficiency
O=C(NCc1ccccc1)c1csc(Nc2ccncn2)n1 [Thiazovivin],,improved efficiency
NC(=O)c1ccc(-c2nc(-c3ccc4c(c3)OCO4)c(-c3ccccn3)[nH]2)cc1 [SB431542],,improved efficiency
